One may read the pIC50 as the negative decadic logarithm of the IC50, by convention in mol/L. Lower therefore signals a high IC50. The melting point is the temperature, or range, at which the solid turns liquid.

Data on twelve molecules can be found in patent US7268152B2, “Glucocorticoid mimetics, methods of making them, pharmaceutical compositions, and uses thereof” (Boehringer Ingelheim Pharmaceuticals, Inc., priority 2002, dated 2007).

The target in data set [1] is T1, human glucocorticoid receptor (GR) complex (Homo sapiens, UniProt P04150).
T1 construct: made in house; host or cells: insect expression system (baculovirus lysate)
T1 sequence (P04150 1-777): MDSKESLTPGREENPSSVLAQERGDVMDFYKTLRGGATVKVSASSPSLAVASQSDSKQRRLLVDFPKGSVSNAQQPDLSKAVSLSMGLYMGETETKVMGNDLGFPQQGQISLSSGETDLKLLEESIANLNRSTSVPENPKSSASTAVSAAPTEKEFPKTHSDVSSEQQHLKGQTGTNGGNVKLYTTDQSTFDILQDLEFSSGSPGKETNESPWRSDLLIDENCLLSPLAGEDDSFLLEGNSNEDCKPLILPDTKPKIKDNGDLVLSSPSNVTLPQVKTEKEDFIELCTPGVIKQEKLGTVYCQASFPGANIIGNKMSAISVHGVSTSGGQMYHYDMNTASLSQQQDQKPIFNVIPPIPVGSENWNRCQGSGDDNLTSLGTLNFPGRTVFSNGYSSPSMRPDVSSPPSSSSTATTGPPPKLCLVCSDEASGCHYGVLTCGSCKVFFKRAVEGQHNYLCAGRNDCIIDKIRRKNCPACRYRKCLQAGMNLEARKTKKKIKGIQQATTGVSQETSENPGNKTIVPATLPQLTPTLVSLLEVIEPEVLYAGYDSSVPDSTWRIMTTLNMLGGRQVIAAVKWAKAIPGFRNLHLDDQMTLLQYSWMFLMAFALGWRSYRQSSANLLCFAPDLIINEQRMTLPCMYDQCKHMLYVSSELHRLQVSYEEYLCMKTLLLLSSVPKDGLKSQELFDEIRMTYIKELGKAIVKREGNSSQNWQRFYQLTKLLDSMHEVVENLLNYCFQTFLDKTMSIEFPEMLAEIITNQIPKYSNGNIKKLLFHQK
Nature of the data set: Glucocorticoid receptor competitive binding assay (fluorescence polarization). Particulars: competition with TAMRA-labeled dexamethasone. In outline: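 FP competition against 15 nM TAMRA-labeled dexamethasone (stock added) for GR complex in baculovirus insect-cell lysate, buffer 10 mM TES, 50 mM KCl, 20 mM molybdate, pH 7.4 with 1 mM DTT. Incubated 1 h at room temperature, read at ex 550/em 580 nm; IC50 from 4-parameter logistic fit.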
A general note: Fluorescence polarisation rises when a labelled molecule tumbles more slowly, as on binding a larger partner.

A further data set has as its system glucocorticoid receptor. Nature of the data set: One or more of the above assays (GR binding and GR cell assays; not specified which). In kind it is cell-based. Particulars: in one or more of the above assays. As for the experimental part: This assay uses fluorescence polarization (FP) to quantitate the ability of test compounds to compete with tetramethyl rhodamine (TAMRA)-labeled dexamethasone for binding to a human glucocorticoid receptor (GR) complex prepared from an insect expression system. The assay buffer was: 10 mM TES, 50 mM KCl, 20 mM Na2MoO4.2H2O, 1.5 mM EDTA, 0.04% w/v CHAPS, 10% v/v glycerol, 1 mM dithiothreitol, pH 7.4. Test compounds were dissolved to 1 mM in neat DMSO and then further diluted to 10×assay concentration in assay buffer supplemented with 10% v/v DMSO. Test compounds were serially diluted at 10×assay concentrations in 10% DMSO-containing buffer in 96-well polypropylene plates. […] Positive controls were reaction mixtures containing no test compound; negative controls (blanks) were reaction mixtures containing 0.7 μM to 2 μM dexamethasone. […] IC50 values were determined by iterative non-linear curve fitting of the FP signal data to a 4-parameter logistic equation.
B. Glucocorticoid Receptor Cell Assays
1. Induction of Aromatase in Fibroblasts (Cell Assay for Transactivation)
Dexamethasone, a synthetic ligand to the glucocorticoid receptor (GR), induces expression of aromatase in human foreskin fibroblast cells. The activity of aromatase is measured by the conversion of testosterone to estradiol in culture media.
On the day of the experiment, the media in the wells is replaced with fresh media. Cells are treated with test compounds to final concentrations of 10^−5 M to 10 ^−8 M, and testosterone to a final concentration of 300 ng/mL. Each well has a total volume of 100 μL. Samples are made in duplicates. Control wells include: (a) wells that receive testosterone only, and (b) wells that receive testosterone plus 2 μM of dexamethasone to provide maximum induction of aromatase. Plates are incubated at 37° C. overnight (15 to 18 hours), and supernatants are harvested at the end of incubation. […] The amount of estradiol is inversely proportional to the ELISA signals in each well. The extent of aromatase induction by test compounds is expressed as a relative percentage to dexamethasone. EC50 values of test compounds are derived by non-linear curve fitting.
2. Inhibition of IL-6 Production in Fibroblasts (Cell Assay for Transrepression)
Human foreskin fibroblast cells produce IL-6 in response to stimulation by pro-inflammatory cytokine IL-1.
On the next day, media in the wells is replaced with fresh media. Cells are treated with IL-1 (rhIL-1α, R&D Systems Cat. No. 200-LA) to a final concentration of 1 ng/mL, and with test compounds to final concentrations of 10 ^−5 M to 10 ^−8 M, in a total volume of 200 μL per well. Samples are done in duplicates. […] Positive control wells receive IL-1 only and represent maximum (or 100%) amount of IL-6 production. Plates are incubated at 37° C. overnight (15 to 18 hours), and supernatants are harvested at the end of incubation. IL-6 levels in the supernatants are determined by the ELISA kits for IL-6 (MedSystems Diagnostics GmbH, Vienna, Austria, Cat. No. BMS213TEN) according to manufacture's instructions. The extent of inhibition of IL-6 by test compounds is expressed in percentage relative to positive controls. IC50 values of test compounds are derived by non-linear curve fitting.
Evaluation of agonist or antagonist activity of compounds binding to the glucocorticoid receptor may be determined by any of the assays.
3. Modulation of Tyrosine Aminotransferase (TAT) Induction in Rat Hepatoma Cells
Testing of compounds for agonist or antagonist activity in induction of tyrosine aminotransferase (TAT) in rat hepatoma cells.
H4-II-E-C3 cells were incubated overnight in 96 well plates (20,000 cells/100 μL/well) in MEM medium containing 10% heat inactivated FBS and 1% nonessential amino acids. On the next day, cells were stimulated with the indicated concentrations of dexamethasone or test compound (dissolved in DMSO, final DMSO concentration 0.2%) for 18 hours. Control cells were treated with 0.2% DMSO.

SMILES strings stand for the structures. pIC50: −log10 of the molar value.

As to `Cc1cc(C)cc(CC(O)(CC(C)(C)c2cccc3c2OCC3)C(F)(F)F)c1` (centres unmarked) [4-(2,3-Dihydrobenzofuran-7-yl)-2-(3,5-dimethylbenzyl)-1,1,1-trifluoro-4-methylpentan-2-ol], in data set [1], the pIC50 is no less than 7.00. Further, in the data set on glucocorticoid receptor, the “activity as agonists of the glucocorticoid receptor function” value (from here on “activity”) is reported as “activity as agonists”.

Turning to `COc1ccc(F)cc1C(C)(C)CC(O)(Cc1cc(C)cc(Cl)c1)C(F)(F)F` (centres unmarked) [2-(3-Chloro-5-methylbenzyl)-1,1,1-trifluoro-4-(5-fluoro-2-methoxyphenyl)-4-methylpentan-2-ol], the pIC50 in data set [1] was no less than 7.00. Moreover, in the data set on glucocorticoid receptor, the “activity” value is recorded as “activity as agonists”.

`COc1ccc(F)cc1C(C)(C)CC(O)(Cc1cc(Br)cc(C)c1F)C(F)(F)F` (centres unmarked) [2-(5-Bromo-2-fluoro-3-methylbenzyl)-1,1,1-trifluoro-4-(5-fluoro-2-methoxyphenyl)-4-methylpentan-2-ol] showed a pIC50 in data set [1] of no less than 7.00. Besides, the “activity” value with glucocorticoid receptor is “activity as agonists”.

As to `CC(C)(CC(O)(Cc1cc(Br)cc(Br)c1)C(F)(F)F)c1cc(F)ccc1O` (centres unmarked) [2-[3-(3,5-Dibromobenzyl)-4,4,4-trifluoro-3-hydroxy-1,1-dimethylbutyl]-4-fluorophenol], the negative logarithm of the IC50 (pIC50) in data set [1] is no less than 7.00. For the same molecule, the “activity” value in the data set on glucocorticoid receptor is on record as “activity as agonists”.

In the case of `COc1ccc(F)cc1C(C)(C)CC(O)(Cc1cc(Br)cc(Br)c1)C(F)(F)F` (centres unmarked) [2-(3,5-Dibromobenzyl)-1,1,1-trifluoro-4-(5-fluoro-2-methoxyphenyl)-4-methylpentan-2-ol], the pIC50 in data set [1] was no less than 7.00. The “activity” value in the data set on glucocorticoid receptor is “activity as agonists”.

In turn, `COc1ccc(F)cc1C(C)(C)CC(O)(Cc1cc(C)cc(C)c1C#N)C(F)(F)F` (centres unmarked) [Example 32, 2-[4-(5-fluoro-2-methoxyphenyl)-2-hydroxy-4-methyl-2-trifluoromethylpentyl]-4,6-dimethylbenzonitrile] had a melting point of 134 to 136 °C.

In data set [1], `CC(C)(CC(O)(Cc1cc(C(F)(F)F)cc(Cl)c1F)C(F)(F)F)c1cccc2ccoc12` (centres unmarked) [4-Benzofuran-7-yl-2-(3-chloro-2-fluoro-5-trifluoromethylbenzyl)-1,1,1-trifluoro-4-methylpentan-2-ol] gave a pIC50 of no less than 7.00. The “activity” value with glucocorticoid receptor is on record as “activity as agonists”.

As to `COc1ccc(F)cc1C(C)(C)CC(O)(Cc1ccc(C#N)cc1Cl)C(F)(F)F` (centres unmarked) [3-Chloro-4-[4-(5-fluoro-2-methoxyphenyl)-2-hydroxy-4-methyl-2-trifluoromethylpentyl]benzonitrile], the pIC50 in data set [1] is no less than 7.00. Moreover, in the data set on glucocorticoid receptor, the “activity” value was “activity as agonists”.

Regarding `COc1ccc(F)cc1C(C)(C)CC(O)(Cc1cc(C(F)(F)F)cc(Cl)c1F)C(F)(F)F` (centres unmarked) [2-(3-Chloro-2-fluoro-5-trifluoromethylbenzyl)-1,1,1-trifluoro-4-(5-fluoro-2-methoxyphenyl)-4-methylpentan-2-ol], the pIC50 in data set [1] is no less than 7.00. For the same molecule, the “activity” value with glucocorticoid receptor was “activity as agonists”.

In data set [1], `CC(C)(CC(O)(Cc1ccc(C#N)cc1Cl)C(F)(F)F)c1cccc2c1OCC2` (centres unmarked) [3-Chloro-4-[4-(2,3-dihydrobenzofuran-7-yl)-2-hydroxy-4-methyl-2-trifluoromethylpentyl]benzonitrile] had a pIC50 of no less than 7.00. Also, in the data set with glucocorticoid receptor, the “activity” value is on record as “activity as agonists”.

In the case of `COc1ccc(F)cc1C(C)(C)CC(O)(Cc1cc(C)cc(C)c1)C(F)(F)F` (centres unmarked) [2-(3,5-Dimethylbenzyl)-1,1,1-trifluoro-4-(5-fluoro-2-methoxyphenyl)-4-methylpentan-2-ol], the negative logarithm of the IC50 (pIC50) in data set [1] is no less than 7.00. Moreover, the “activity” value in the data set with glucocorticoid receptor is “activity as agonists”.

Regarding `Cc1cc(Cl)cc(CC(O)(CC(C)(C)c2cc(F)ccc2O)C(F)(F)F)c1` (centres unmarked) [2-[3-(3-Chloro-5-methylbenzyl)-4,4,4-trifluoro-3-hydroxy-1,1-dimethylbutyl]-4-fluorophenol], in data set [1], the pIC50 is no less than 7.00. In the data set on glucocorticoid receptor, the “activity” value is on record as “activity as agonists”.
